{
  "source": "patent US8324130B2",
  "about": "“Synergistic active ingredient combinations” (Bayer Cropscience AG, priority 2006, dated 2012)",
  "assay_type_in_all_cases": "in vivo",
  "key": {"Aphis gossypii": {"test_system": "Aphis gossypii", "assay": "Aphis gossypii test (cotton leaves dipped into active compound preparation)", "experimental": "(§1) Solvent: 7 parts by weight of dimethylformamide\n(§2) Emulsifier: 2 parts by weight of alkylaryl polyglycol ether\n(§3) To produce a suitable preparation of active compound, 1 part by weight of active compound is mixed with the stated amounts of solvent and emulsifier, and the concentrate is diluted with emulsifier-containing water to the desired concentration.\nCotton leaves (Gossypium hirsutum) which are heavily infested by the cotton aphid (Aphis gossypii) are treated by being dipped into the preparation of active compound of the desired concentration.\n(§4) After the desired period of time, the kill in % is determined. 100% means that all aphids have been killed; 0% means that none of the aphids have been killed. The kill rates determined are entered into Colby's formula (see page 1)."}, "Myzus persicae": {"test_system": "Myzus persicae", "assay": "Myzus persicae test (cabbage leaves dipped into active compound preparation)", "experimental": "as §1, §2, §3\nCabbage leaves (Brassica oleracea) which are heavily infested by the Green peach aphid (Myzus persicae) are treated by being dipped into the preparation of active compound of the desired concentration.\nas §4"}, "Phaedon cochleariae": {"test_system": "Phaedon cochleariae", "assay": "Phaedon cochleariae test (cabbage leaves dipped, populated with larvae)", "conditions": "200 ppm, larvae on cabbage leaves", "experimental": "as §1, §2, §3\nAfter the desired period of time, the kill in % is determined. 100% means that all beetle larvae have been killed; 0% means that none of the beetle larvae have been killed. The kill rates determined are entered into Colby's formula (see page 1)."}},
  "data": [
    {"smiles": "CN(Cc1ccc(Cl)nc1)C1=CC(=O)OC1", "note": "[compound (Ia), 4-[[(6-chloropyridin-3-yl)methyl](methylamino)]furan-2-(5H)-one]", "values": [
      {"measurement": "Kill in % after 6^d", "setting": "Aphis gossypii; 0.16 ppm", "value": 40, "unit": "%"},
      {"measurement": "Kill in % after 6^d", "setting": "Aphis gossypii; 0.8 ppm", "value": 70, "unit": "%"},
      {"measurement": "Kill in % after 1^d", "setting": "Myzus persicae; 0.16 ppm", "value": 0, "unit": "%"},
      {"measurement": "Kill in % after 1^d", "setting": "Myzus persicae; 0.8 ppm", "value": 40, "unit": "%"},
      {"measurement": "Kill in % after 6^d", "setting": "Myzus persicae; 0.8 ppm", "value": 75, "unit": "%"}
    ]},
    {"smiles": "CO/N=C(/C(=O)OC)c1ccccc1CO/N=C(\\C)c1cccc(C(F)(F)F)c1", "note": "[trifloxystrobin, reference compound]", "values": [
      {"measurement": "Kill in % after 6^d", "setting": "Aphis gossypii; 100 ppm", "value": 40, "unit": "%"}
    ]},
    {"smiles": "O=C1C=C(N(Cc2ccc(Cl)nc2)C2CC2)CO1", "note": "[compound (Ib), 4-[[(6-chloropyridin-3-yl)methyl] (cyclopropylamino)]furan-2-(5H)-one]", "values": [
      {"measurement": "Kill in % after 1^d", "setting": "Aphis gossypii; 0.8 ppm", "value": 30, "unit": "%"},
      {"measurement": "Kill in % after 6^d", "setting": "Aphis gossypii; 0.8 ppm", "value": 40, "unit": "%"},
      {"measurement": "Kill in % after 1^d", "setting": "Myzus persicae; 4 ppm", "value": 75, "unit": "%"},
      {"measurement": "Kill in % after 3^d", "setting": "Phaedon cochleariae", "value": 60, "unit": "%"}
    ]},
    {"smiles": "COCC(=O)N(c1c(C)cccc1C)C(C)C(=O)OC", "note": "(centres unmarked) [metalaxyl, reference compound]", "values": [
      {"measurement": "Kill in % after 1^d", "setting": "Aphis gossypii; 100 ppm", "value": 10, "unit": "%"},
      {"measurement": "Kill in % after 1^d", "setting": "Myzus persicae; 100 ppm", "value": 0, "unit": "%"}
    ]},
    {"smiles": "CCCOC(=O)NCCCN(C)C", "note": "[propamocarb, reference compound]", "values": [
      {"measurement": "Kill in % after 3^d", "setting": "Phaedon cochleariae", "value": 5, "unit": "%"}
    ]},
    {"smiles": "N#Cc1c[nH]cc1-c1cccc2c1OC(F)(F)O2", "note": "[fludioxonil, reference compound]", "values": [
      {"measurement": "Kill in % after 6^d", "setting": "Aphis gossypii; 100 ppm", "value": 0, "unit": "%"},
      {"measurement": "Kill in % after 1^d", "setting": "Myzus persicae; 100 ppm", "value": 0, "unit": "%"}
    ]},
    {"smiles": "OC(Cc1ccccc1Cl)(Cn1nc[nH]c1=S)C1(Cl)CC1", "note": "(centres unmarked) [prothioconazole, reference compound]", "values": [
      {"measurement": "Kill in % after 1^d", "setting": "Myzus persicae; 100 ppm", "value": 0, "unit": "%"},
      {"measurement": "Kill in % after 6^d", "setting": "Myzus persicae; 100 ppm", "value": 0, "unit": "%"}
    ]}
  ]
}
